Assays:
Type in all cases: functional
Settings in all cases: read-out: ID50 (the source's name)
Cavia porcellus [1] = assay: Compound was tested for Bronchodilator activity against histamine-induced spasm in guinea pig by Konzett-Rossler test; dose administered by intraduodenal route.
Cavia porcellus [2] = assay: Compound was tested for Bronchodilator activity against acetylcholine-induced spasm in guinea pig by Konzett-Rossler tes; dose administered by intraduodenal route.
Cavia porcellus [3] = assay: Compound was tested for Bronchodilator activity against serotonin-induced spasm in guinea pig by Konzett-Rossler test; dose administered by intraduodenal route.

Measured: ED50

CC1CCCCc2nc3c(c(=O)n21)CCCC3 (stereo not drawn)
> 320 µmol/kg: all assays above

— ChEMBL document CHEMBL1123826, “Nitrogen bridgehead compounds. 66. Bronchodilator nitrogen bridgehead compounds with a pyrimidinone moiety” (J Med Chem, 1987)
